# Measured values as given in patent US11370794B2, “Toll-like receptor antagonist compounds and methods of use” (Dynavax Technologies Corporation, priority 2016, dated 2022).
# Read-outs that look alike come from different tables or passages of the source.
# Columns and labels:
# human TLR8 = molecular target: T1, human TLR8 (Homo sapiens, UniProt Q9NR97); assay: Inhibition of human TLR8 in human monocytes (TNF-alpha / IL-1 beta ELISA); assay type: cell-based; details: human monocytes, agonist ORN8L 100 μg/mL, 24 hours
# T1 construct: endogenous in cells; host or cells: primary human monocytes (CD14 microbeads) from buffy coats of healthy donors
# T1 sequence (Q9NR97 27-1041): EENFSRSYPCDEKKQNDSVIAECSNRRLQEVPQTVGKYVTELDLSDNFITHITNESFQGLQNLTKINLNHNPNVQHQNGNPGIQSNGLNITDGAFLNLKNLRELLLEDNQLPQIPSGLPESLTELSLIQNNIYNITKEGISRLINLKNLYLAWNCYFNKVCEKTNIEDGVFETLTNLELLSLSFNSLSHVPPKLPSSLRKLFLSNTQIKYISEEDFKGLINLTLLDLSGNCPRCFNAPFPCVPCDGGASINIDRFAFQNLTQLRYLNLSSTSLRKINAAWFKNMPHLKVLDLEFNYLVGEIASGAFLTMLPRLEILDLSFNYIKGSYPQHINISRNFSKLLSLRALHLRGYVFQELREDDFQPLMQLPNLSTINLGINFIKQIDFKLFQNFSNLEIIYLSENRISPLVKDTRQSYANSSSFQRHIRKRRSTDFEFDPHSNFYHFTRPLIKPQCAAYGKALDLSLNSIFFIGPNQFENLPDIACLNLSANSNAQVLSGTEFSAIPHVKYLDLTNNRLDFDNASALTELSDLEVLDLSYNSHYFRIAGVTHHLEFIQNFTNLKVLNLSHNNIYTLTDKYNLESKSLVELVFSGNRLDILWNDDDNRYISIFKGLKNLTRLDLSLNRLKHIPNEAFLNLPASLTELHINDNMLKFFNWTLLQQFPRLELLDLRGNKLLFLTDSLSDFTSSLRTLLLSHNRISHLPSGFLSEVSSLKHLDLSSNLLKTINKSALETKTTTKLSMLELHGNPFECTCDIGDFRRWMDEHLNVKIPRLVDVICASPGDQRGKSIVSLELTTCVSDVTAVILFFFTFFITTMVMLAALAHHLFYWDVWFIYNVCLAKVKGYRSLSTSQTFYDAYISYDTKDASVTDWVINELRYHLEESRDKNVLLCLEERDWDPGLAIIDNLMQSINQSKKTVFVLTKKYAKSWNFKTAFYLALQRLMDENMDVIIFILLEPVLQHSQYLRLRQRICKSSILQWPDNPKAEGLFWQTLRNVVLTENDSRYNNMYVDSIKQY
# Excerpt: Example B2—Inhibition of Human TLR8 in Human Monocytes
# When placed in cell culture, engagement of TLR8 with an agonist leads to expression and release of cytokines into the media.
# Buffy coats from anonymized, healthy human donors. CD14 microbeads (Milteny Cat. No. 130-050-201). TLR8 agonist, (5′-M2UGCUGCUUGUG-/glycerol/-GUGUUCGUCGUM2-5′ with M2=C6-linker, ORN8L, RNA oligonucleotide (Chem Genes Corp.). Human TNF-alpha ELISA kit (Mabtech Cat. No. 3510-1H-20). Human interleukin (IL)-1 beta ELISA kit (Mabtech Cat. No. 3415-1H-20).
# Following isolation of monocytes from buffy coats, human monocytes were plated into 96 well plates at approximately 200,000 cells per well. Test compounds were serially diluted and added to the plates. Immediately after adding test compounds, the TLR8 agonist (ORN8L, RNA oligonucleotide) was added to a final concentration of 100 μg/mL. Cells were incubated for 24 hours at 37° C. A portion of the media supernatant was analyzed for the presence of TNF-alpha and/or IL-1 beta using ELISA kits. The amount of TNF-alpha or IL-1 beta produced is a reflection of the amount of TLR8-dependent receptor activity. The IC50 values (the concentration at which 50% of the TLR8-dependent receptor activity is reduced) were calculated based upon the TLR8-dependent receptor activity over a range of different test compound concentrations.
# human TLR9 = molecular target: T2, human TLR9 (Homo sapiens, UniProt Q9NR96); assay: Inhibition of human TLR9 in human B cells (IL-6 ELISA); assay type: cell-based; details: for IC50: human B cells, agonist 1018 ISS 1 μM; for inhibits TLR9-dependent responses (in words): summary statement of the description
# T2 construct: endogenous in cells; host or cells: primary human B cells (CD19 microbeads) from buffy coats of healthy donors
# T2 sequence (Q9NR96 26-1032): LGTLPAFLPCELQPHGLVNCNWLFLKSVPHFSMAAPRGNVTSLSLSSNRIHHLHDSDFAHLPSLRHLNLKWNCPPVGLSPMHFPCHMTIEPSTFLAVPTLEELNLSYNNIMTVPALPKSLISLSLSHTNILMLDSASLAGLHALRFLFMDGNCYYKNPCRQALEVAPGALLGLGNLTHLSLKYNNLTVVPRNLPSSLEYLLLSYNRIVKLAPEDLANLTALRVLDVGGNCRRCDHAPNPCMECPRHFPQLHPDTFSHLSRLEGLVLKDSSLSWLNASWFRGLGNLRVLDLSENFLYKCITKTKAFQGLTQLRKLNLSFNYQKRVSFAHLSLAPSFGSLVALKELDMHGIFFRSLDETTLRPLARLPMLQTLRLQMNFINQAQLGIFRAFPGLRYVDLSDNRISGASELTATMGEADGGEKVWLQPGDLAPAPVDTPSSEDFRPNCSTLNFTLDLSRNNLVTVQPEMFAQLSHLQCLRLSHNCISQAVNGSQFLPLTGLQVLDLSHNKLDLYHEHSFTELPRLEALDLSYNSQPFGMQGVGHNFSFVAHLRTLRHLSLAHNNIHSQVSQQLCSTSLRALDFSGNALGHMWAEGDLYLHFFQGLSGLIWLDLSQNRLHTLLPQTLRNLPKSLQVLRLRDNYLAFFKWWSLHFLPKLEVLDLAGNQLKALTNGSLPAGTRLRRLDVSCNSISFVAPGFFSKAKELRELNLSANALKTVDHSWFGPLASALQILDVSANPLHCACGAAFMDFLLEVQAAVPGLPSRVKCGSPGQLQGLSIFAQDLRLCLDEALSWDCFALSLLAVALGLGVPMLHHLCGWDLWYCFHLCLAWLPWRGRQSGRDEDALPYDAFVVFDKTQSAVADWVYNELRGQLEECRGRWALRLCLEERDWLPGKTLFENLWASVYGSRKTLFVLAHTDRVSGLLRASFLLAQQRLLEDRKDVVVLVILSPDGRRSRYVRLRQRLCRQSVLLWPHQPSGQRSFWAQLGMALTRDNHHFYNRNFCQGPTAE
# Description: Example B3—Inhibition of Human TLR9 in Human B Cells
# When placed in cell culture, engagement of TLR9 with an agonist leads to expression and release of cytokines into the media.
# Buffy coats from anonymized, healthy human donors. CD19 microbeads (Miltenyi Cat. No. 130-050-301). TLR9 agonist, 1018 ISS, CpG-containing DNA oligonucleotide. Human interleukin (IL)-6 ELISA kit (Mabtech Cat. No. 3460-1H-20).
# Following isolation of […] from buffy coats, human B cells were plated into 96 well plates at approximately 300,000 cells per well. Test compounds were serially diluted and added to the plates. Test compounds were typically assayed using a concentration range from about 0.01 μM to about 10 μM. Certain test compounds were further assayed in an expanded dilution series using a compound concentration range from about 0.001 μM to about 30 μM. Immediately after adding test compounds, the TLR9 agonist (1018 ISS, CpG-containing DNA oligonucleotide) was added to a final concentration of 1 μM. Cells were incubated for 48 hours at 37° C. A portion of the media supernatant was analyzed for the presence of IL-6 using ELISA kits. The amount of IL-6 produced is a reflection of the amount of TLR9-dependent receptor activity. The IC50 values (the concentration at which 50% of the TLR9-dependent receptor activity is reduced) were calculated based upon the TLR9-dependent receptor activity over a range of different test compound concentrations.
# [1] = TNF-alpha readout, read-out: Human TLR8 IC50 TNF-a
# [2] = IL-6 readout, 48 hours, range about 0.01 to 10 μM, read-out: Human TLR9 IC50
# [3] = IL-1 beta readout, read-out: Human TLR8 IC50 IL-1b
# [4] = IL-6, 48 hours, expanded dilution series about 0.001 to 30 μM, read-out: Human TLR9 IC50, expanded dilution series
SMILES,IC50 (human TLR8; [1]),IC50 (human TLR9; [2]),IC50 (human TLR8; [3]),inhibits TLR9-dependent responses (in words) (human TLR9),IC50 (human TLR9; [4])
CNC(=O)C1CCN(c2nnc(C)c3c(C)n(-c4ccc(C)cc4)nc23)CC1 [2-2],≥ 20 µM,3.77 µM,,,
Cc1ccc(-n2nc3c(N4CCC(C(=O)N5CCOCC5)CC4)nnc(C)c3c2C)cc1 [2-3],> 10 µM,> 10 µM,> 10 µM,,
Cc1ccc(-n2nc3c(N4CCC(C(=O)NCCCN5CCc6ccccc65)CC4)nnc(C)c3c2C)cc1 [2-4],> 10 µM,> 10 µM,> 10 µM,,
Cc1ccc(-n2nc3c(N4CCC(C(=O)NCCCN5CCCc6ccccc65)CC4)nnc(C)c3c2C)cc1 [2-5],> 10 µM,> 10 µM,> 10 µM,,
Cc1ccc(-n2nc3c(N4CCC(C(=O)NCCCc5ccccc5)CC4)nnc(C)c3c2C)cc1 [2-6],> 10 µM,> 10 µM,> 10 µM,,
Cc1ccc(-n2nc3c(N4CCC(C(=O)NCCCCCc5ccccc5)CC4)nnc(C)c3c2C)cc1 [2-12],> 10 µM,0.427 µM,> 10 µM,,
"CCN(CC)CCCNC(=O)C1CCN(c2nnc(C)c3c(C)n(-c4ccccc4)nc23)CC1 [7x, N-(3-(diethylamino)propyl)-1-(3,4-dimethyl-2-phenyl-2H-pyrazolo[3,4-d]pyridazin-7-yl)piperidine-4-carboxamide]",> 10 µM,0.368 µM,> 10 µM,,
"CCN(CC)CCCNC(=O)C1CCN(c2nnc(C)c3c(C)n(-c4ccc(OC)cc4)nc23)CC1 [9x, N-(3-(diethylamino)propyl)-1-(2-(4-methoxyphenyl)-3,4-dimethyl-2H-pyrazolo[3,4-d]pyridazin-7-yl)piperidine-4-carboxamide]",> 10 µM,0.04 µM,> 10 µM,inhibit,
"Cc1ccc(-n2nc3c(N4CCC(C(=O)NCCCN5CCCC5)CC4)nnc(C)c3c2C)cc1 [15x, 1-(3,4-dimethyl-2-(p-tolyl)-2H-pyrazolo[3,4-d]pyridazin-7-yl)-N-(3-(pyrrolidin-1-yl)propyl)piperidine-4-carboxamide]",4.6 µM,0.408 µM,,,
"Cc1ccc(-n2nc3c(N4CCC(C(=O)NCCN5CCOCC5)CC4)nnc(C)c3c2C)cc1 [17x, 1-(3,4-dimethyl-2-(p-tolyl)-2H-pyrazolo[3,4-d]pyridazin-7-yl)-N-(2-morpholinoethyl)piperidine-4-carboxamide]",≥ 20 µM,0.017 µM,,inhibit,
"CCN(CC)CCNC(=O)C1CCN(c2nnc(C)c3c(C)n(-c4ccc(C)cc4)nc23)CC1 [20x, N-(2-(diethylamino)ethyl)-1-(3,4-dimethyl-2-(p-tolyl)-2H-pyrazolo[3,4-d]pyridazin-7-yl)piperidine-4-carboxamide]",4.86 µM,0.003 µM,5.04 µM,,
"Cc1nnc(N2CCC(C(=O)NCCN3CCCCC3C)CC2)c2nn(-c3ccccc3)c(C)c12 (stereo not drawn) [24x, 1-(3,4-dimethyl-2-phenyl-2H-pyrazolo[3,4-d]pyridazin-7-yl)-N-(2-(2-methylpiperidin-1-yl)ethyl)piperidine-4-carboxamide]",> 10 µM,0.032 µM,> 10 µM,inhibit,
"Cc1ccc(-n2nc3c(N4CCC(C(=O)N5CC[C@H](CN(C)C)C5)CC4)nnc(C)c3c2C)cc1 [Compound 45a, (R)-(1-(3,4-dimethyl-2-(p-tolyl)-2H-pyrazolo[3,4-d]pyridazin-7-yl)piperidin-4-yl)(3-((dimethylamino)methyl)pyrrolidin-1-yl)methanone]",,,,inhibit,
"Cc1ccc(-n2nc3c(N4CCC(C(=O)N5CC[C@@H](CN(C)C)C5)CC4)nnc(C)c3c2C)cc1 [Compound 45b, (S)-(1-(3,4-dimethyl-2-(p-tolyl)-2H-pyrazolo[3,4-d]pyridazin-7-yl)piperidin-4-yl)(3-((dimethylamino)methyl)pyrrolidin-1-yl)methanone]",,,,inhibit,
"Cc1ccc(-n2cc3cncc(N4CCC(C(=O)NCCCN(C)C)CC4)c3n2)cc1 [Compound No. 55, N-(3-(dimethylamino)propyl)-1-(2-(p-tolyl)-2H-pyrazolo[4,3-c]pyridin-7-yl)piperidine-4-carboxamide]",,0.007 µM,,,0.009 µM
"Cc1ccc(-n2nc3c(N4CCC(C)(C(=O)NCCCN(C)C)CC4)nnc(C)c3c2C)cc1 [compound 20, 1-(3,4-dimethyl-2-(p-tolyl)-2H-pyrazolo[3,4-d]pyridazin-7-yl)-N-(3-(dimethylamino)propyl)-4-methylpiperidine-4-carboxamide]",,0.018 µM,,,0.024 µM
